Experimental data published in US5972927A, “Diazepinoindoles as phosphodiesterase 4 inhibitors” (Jouveinal, priority 1996, dated 1999).
Where a name gives a salt, the structure may show the parent alone.

Biological target: PDE 4
Test: Inhibition of PDE 4 compared with rolipram, enzyme preparation obtained from the line U937
Assay type: biochemical, human
Conditions: ratio to rolipram on the same enzymatic preparation; PDE 4 from U937 line; inhibitor 0.1 to 100 μM
Protocol: The capacity of the compounds of formula (I) of the invention to inhibit cyclic nucleotide phosphodiesterases is evaluated by measuring their IC50 (concentration necessary to inhibit the enzymatic activity by 50%). In the case of PDEs 4, this value is compared to the IC50 of rolipram, a PDE 4-specific inhibitor, relative to the IC50 of rolipram on the IC50 of the product to be tested with respect to the same enzymatic preparation.
The various types of phosphodiesterase are obtained partially purified on a DEAE-cellulose column from guinea pig trachea and dog aorta according to a method adapted from W. J. Thompson et al., 1979, Advances in Cyclic Nucleotide Research, Vol. 10: 69-92, ed. G. Brooker et al. Raven Press, New York, and from P. J. Silver et al., 1988, Eur. J. Pharmacol. 150: 85-94, and from the U937 cell line of human origin, according to a method adapted from T. J. Torphy et al., 1992, J. Pharm. Exp. Ther. 263: 1195-1205.
Measurement of the enzymatic activity for the various types of PDE, and in particular for the PDEs 4, is then made according to a method also adapted from W. J. Thompson, Ibidem.
In order to determine the IC50, the enzymatic activity is measured in the presence of the inhibitor over a range of concentrations from 0.1 to 100 μM.
The following table illustrates the inhibitory activity of PDE 4 when compared with that of rolipram on an enzyme preparation obtained from the line U937.
For `Nc1cc2c3c(c1)C(c1ccccc1)=N[C@@H](NC(=O)c1ccncc1)C(=O)N3CC2` [12A (salt)], the “IC50 rolipram / IC50 example” value was 5.7. For `O=C(N[C@@H]1N=C(c2ccccc2)c2cc(O)cc3c2N(CC3)C1=O)c1cc2ccccc2cn1` [Example 1, (3R)-Isoguinoline-3-carboxylic acid (9-hydroxy-4-oxo-1-phenyl-3,4,6,7-tetrahydro-[1,4]diazepino[6,7,1-hi]indol-3-yl)amide], the “IC50 rolipram / IC50 example” value was 1.9. In the case of `Nc1cc2c3c(c1)C(c1ccccc1)=N[C@@H](NC(=O)c1cc(Cl)c(N)c(Cl)c1)C(=O)N3CC2` [Example 4, (3R)-4-Amino-N-(9-amino-4-oxo-1-phenyl-3,4,6,7-tetrahydro[1,4]diazepino [6,7,1-hi]indol-3-yl)-3,5-dichlorobenzamide], the “IC50 rolipram / IC50 example” value was 33.0. For `COc1cc(N)c(Cl)cc1C(=O)N[C@@H]1N=C(c2ccccc2)c2cc(N)cc3c2N(CC3)C1=O` [Example 8, (3R)-4-Amino-N-(9-amino-4-oxo-1-phenyl-3,4,6,7-tetrahydro[1,4]diazepino[6,7,1-hi]indol-3-yl)-5-chloro-2-methoxybenzamide], the “IC50 rolipram / IC50 example” value was 3.4. In the case of `Nc1cc2c3c(c1)C(c1ccccc1)=N[C@@H](NC(=O)c1ccncc1)C(=O)N3CC2` [Example 12, (3R)-N-(9-Amino-4-oxo-1-phenyl-3,4,6,7-tetra-hydro[1,4]diazepinor [6,7,1-hi]indol-3-yl)-isonicotinamide], the “IC50 rolipram / IC50 example” value was 2.0. For `CC(C)(C)OC(=O)Nc1cnccc1C(=O)N[C@@H]1N=C(c2ccccc2)c2cc(N)cc3c2N(CC3)C1=O` [Example 13, (3R)-3-t-Butyloxycarbonylamino-N-(9-amino-4-oxo-1-phenyl-3,4,6,7-tetrahydro[1,4]diazepino[6,7,1-hi]indol-3-yl)isonicotinamide], the “IC50 rolipram / IC50 example” value was 1.6. With `Nc1cc2c3c(c1)C(c1ccccc1)=N[C@@H](NC(=O)c1cc4ccccc4cn1)C(=O)N3CC2` [Example 18, (3R)-Isoquinoline-3-carboxylic acid (9-amino-4-oxo-1-phenyl-3,4,6,7-tetrahydro[1,4]-diazepino[6,7,1-hi]indol-3-yl)amide] the “IC50 rolipram / IC50 example” value was 11.0. In the case of `Nc1cc2c3c(c1)C(c1ccccc1)=N[C@@H](NC(=O)c1cnc4ccccc4c1)C(=O)N3CC2` [Example 19, (3R)-Quinoline-3-carboxylic acid (9-amino-4-oxo-1-phenyl-3,4,6,7-tetrahydro[1,4]-diazepino[6,7,1-hi]indol-3-yl)amide], the “IC50 rolipram / IC50 example” value was 1.4. In the case of `Cc1cc2nnc(C(=O)N[C@@H]3N=C(c4ccccc4)c4cc(N)cc5c4N(CC5)C3=O)c(C)n2n1` [Example 20, (3R)-4,7-Dimethylpyrazolo[5,1-c][1,2,4]triazine-3-carboxylic acid (9-amino-4-oxo-1-phenyl-3,4,6,7-tetrahydro[1,4]-diazepino[6,7,1-hi]indol-3-yl)amide], the “IC50 rolipram / IC50 example” value was 1.1. In the case of `CN(C)c1cc2c3c(c1)C(c1ccccc1)=N[C@@H](NC(=O)c1cc(Cl)c(N)c(Cl)c1)C(=O)N3CC2` [Example 21, (3R)-4-Amino-3,5-dichloro-N-(9-dimethylamino-4-oxo-1-phenyl-3,4,6,7-tetrahydro[1,4]-diazepino[6,7,1-hi]indol-3-yl)benzamide], the “IC50 rolipram / IC50 example” value was 3.3. For `Nc1cc2c3c(c1)C(c1ccccc1)=N[C@@H](NC(=O)c1cc4ccccc4o1)C(=O)N3CC2` [Example 30, (3R)N-(9-amino-4-oxo-1-phenyl-3,4, 67-tetrahydro[1,4]diazepino[6,7,1-hi]indol-3-yl)-2-benzofuranecarboxamide], the “IC50 rolipram / IC50 example” value was 15.0. In the case of `Cc1cc2nnc(C(=O)N[C@@H]3N=C(c4ccccc4)c4cc(N5CCCC5)cc5c4N(CC5)C3=O)c(C)n2n1` [Example 32, (3R) 4,7-dimethyl-pyrazolo[5,1-c][1,2,4]triazine-3-carboxylic acid [4-oxo-1-pheny-9-(pyrrolidin-1-yl)-3,4,6,7-tetrahydro[1,4]diazepino[6,7,1-hi]indol-3-yl)-amide], the “IC50 rolipram / IC50 example” value was 4.0.

Tested on: inflammatory cells in rodents
Test: not given
Conditions: in vitro; prior art; cited from earlier work
For `COc1ccc(C2CNC(=O)C2)cc1OC1CCCC1` (stereo not shown) [rolipram], the “activity of inflammatory cells in rodents” value is listed as “inhibits the activity of inflammatory cells in rodents: inhibition of the synthesis of mediators by mastocytes, eosinophil and basophil polymorphonuclear leukocytes and monocytes; inhibition of chemotaxis and of the degranulation of polymorphonuclear leukocytes”.

Tested on: not given
Test: not given
Conditions: prior art; cited from earlier work
In the case of `COc1ccc(C2CNC(=O)C2)cc1OC1CCCC1` (stereo not shown) [rolipram], the undesirable effects is given as “undesirable effects of the type involving nausea and vomiting”. In the case of `Cn1c(=O)c2[nH]cnc2n(C)c1=O` [theophylline], the therapeutic index is given as “low therapeutic index” and the undesirable effects is given as “undesirable effects such as nausea and headaches”.
